According to patent US4207311A, “Peptides having analgesic and thermoregulative properties” (The Salk Institute for Biological Studies, priority 1977, dated 1980):
Square brackets hold non-standard residues; d marks the D form. Peptide text beside a SMILES is read from it. pGlu = O=C1CC[C@@H](C(=O)O)N1

Test system: cold exposed rat
Assay: hypothermia in cold exposed rats after intracisternal injection (rectal/core temperature)
Format: in vivo
Method: Male Sprague-Dawley-CV rats weighing 180-200 grams were housed in temperature and humidity controlled quarters. The rats were fed a standard rat food ration and tap water ad libitum. After being anesthetized with ether, peptides were injected into the cisterna magna of each rat. Ten microliters of a peptide solution containing 1-1000 nanograms of the peptide were injected. Immediately following the injections, the animals were transferred to a cold room maintained at 4° C. Rectal temperatures were recorded with a thermo probe at 30 minute intervals following injection. All experiments were carried out in a randomized block design. Following analyses of variance, differences between the effect of the various peptides were determined. The peptides were dissolved in a buffer composed of 126 mM, NaCl, 6 mM KCl, 1 mM NaH2 PO4, 0.88 mM MgSo4, 1.45 mM CaCl2, and 25 mM HEPES pH 7.2.
Other peptides isolated from anuran skin, i.e., litorin, ranatensin and alytesin, are approximately 1%, 10% and 100% respectively as potent as the peptide described above to lower body temperature of the cold exposed rat.

Structure (SMILES) | potency relative to Neurotensin to produce hypothermia (cold exposed rat (4° C.), graded doses, core temperature 60 minutes following administration) | potency relative to the peptide of Example I to lower body temperature (cold exposed rat)
CSCC[C@H](NC(=O)[C@H](CC(C)C)NC(=O)[C@H](Cc1cnc[nH]1)NC(=O)CNC(=O)[C@@H](NC(=O)[C@H](C)NC(=O)[C@H](Cc1c[nH]c2ccccc12)NC(=O)[C@H](CCC(N)=O)NC(=O)[C@H](CC(N)=O)NC(=O)CNC(=O)[C@H](CC(C)C)NC(=O)[C@H](CCCN=C(N)N)NC(=O)[C@H](CCC(N)=O)NC(=O)[C@@H]1CCC(=O)N1)C(C)C)C(N)=O [the peptide of the invention] | at least 10^4 times | 
CSCC[C@H](NC(=O)[C@H](Cc1ccccc1)NC(=O)[C@H](Cc1c[nH]cn1)NC(=O)CNC(=O)[C@@H](NC(=O)[C@H](C)NC(=O)[C@H](Cc1c[nH]c2ccccc12)NC(=O)[C@H](CCC(N)=O)NC(=O)[C@@H]1CCCN1C(=O)[C@@H](NC(=O)[C@@H]1CCC(=O)N1)C(C)C)C(C)C)C(N)=O [ranatensin] ([pGlu]VPQWAVGHFM-NH2) |  | ~10%
